Laboratory results taken from US20150105252A1, “SUBSTITUTED PYRAZOLES AS HERBICIDES” (E I DU PONT DE NEMOURS AND COMPANY, priority 2013, published 2015).

What was measured:
wheat [1] = assay: Test A postemergence; assay type: in vivo, Triticum aestivum
How it was run: (§1)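 Seeds were sown in a loam soil–sand blend and given a directed soil spray preemergence; postemergence plants at 2–10 cm, one- to two-leaf stage, were sprayed with compound in non-phytotoxic solvent with surfactant. After about 10 days in a greenhouse, injury was visually rated against untreated controls (0 = no effect, 100 = complete control).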

corn [2] = assay: Test A preemergence; assay type: in vivo, Zea mays; settings: preemergence
How it was run: as §1

crabgrass, large [3] = assay: Test A preemergence; assay type: in vivo, Digitaria sanguinalis; settings: preemergence
How it was run: as §1

velvetleaf [4] = assay: Test A postemergence; assay type: in vivo, Abutilon theophrasti
How it was run: as §1

sedge, umbrella = assay: Test B flood; assay type: in vivo, Cyperus difformis; settings: 250 g ai/ha, visual rating on 0 to 100 scale (0 no effect, 100 complete control), 13 to 15 days
How it was run: (§2)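 Each compound is applied to the floodwater of pots holding 2-leaf seedlings, water standing 3 cm over the soil throughout. Plants stay in a greenhouse 13 to 15 days before visual scoring against controls from 0 (no effect) to 100 (complete control).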

ducksalad = assay: Test B flood; assay type: in vivo, Heteranthera limosa; settings: 250 g ai/ha, visual rating on 0 to 100 scale (0 no effect, 100 complete control), 13 to 15 days
How it was run: as §2

morningglory [5] = assay: Test A preemergence; assay type: in vivo, Ipomoea spp.; settings: preemergence
How it was run: as §1

foxtail, giant [6] = assay: Test A preemergence; assay type: in vivo, Setaria faberii; settings: preemergence
How it was run: as §1

foxtail, giant [7] = assay: Test A postemergence; assay type: in vivo, Setaria faberii
How it was run: as §1

barnyardgrass [8] = assay: Test A postemergence; assay type: in vivo, Echinochloa crus-galli; settings: Postemergence
How it was run: as §1

pigweed [9] = assay: Test A preemergence; assay type: in vivo, Amaranthus retroflexus; settings: preemergence
How it was run: as §1

pigweed [10] = assay: Test A postemergence; assay type: in vivo, Amaranthus retroflexus
How it was run: as §1

crabgrass, large [11] = assay: Test A postemergence; assay type: in vivo, Digitaria sanguinalis
How it was run: as §1

barnyardgrass [12] = assay: Test B flood; assay type: in vivo, Echinochloa crus-galli; settings: 250 g ai/ha, visual rating on 0 to 100 scale (0 no effect, 100 complete control), 13 to 15 days
How it was run: as §2

wheat [13] = assay: Test A preemergence; assay type: in vivo, Triticum aestivum; settings: preemergence
How it was run: as §1

morningglory [14] = assay: Test A postemergence; assay type: in vivo, Ipomoea spp.
How it was run: as §1

velvetleaf [15] = assay: Test A preemergence; assay type: in vivo, Abutilon theophrasti; settings: preemergence
How it was run: as §1

corn [16] = assay: Test A postemergence; assay type: in vivo, Zea mays
How it was run: as §1

barnyardgrass [17] = assay: Test A preemergence; assay type: in vivo, Echinochloa crus-galli; settings: preemergence
How it was run: as §1

rice = assay: Test B flood; assay type: in vivo, Oryza sativa; settings: 250 g ai/ha, visual rating on 0 to 100 scale (0 no effect, 100 complete control), 13 to 15 days
How it was run: as §2

[18] = Postemergence, 125 g ai/ha, 0 to 100 scale, 0 no effect, 100 complete control
[19] = Postemergence, 500 g ai/ha, 0 to 100 scale (0 no effect, 100 complete control)
[20] = 125 g ai/ha, visual injury approx. 10 days after treatment
[21] = 500 g ai/ha, visual injury after approx. 10 days, 0 to 100 scale (0 no effect, 100 complete control)
[22] = 125 g ai/ha, 0 to 100 scale, 0 no effect, 100 complete control
[23] = Postemergence, 500 g ai/ha, visual rating after approx. 10 days, 0 to 100 scale (0 no effect, 100 complete control)
[24] = postemergence, 125 g ai/ha, about 10 days, visual rating on 0 to 100 scale (0 no effect, 100 complete control)
[25] = 125 g ai/ha, visual injury, 0 to 100 scale, approx. 10 days

SMILES: CCCNC(=O)c1cc(CC)n(Cc2cc(C(F)(F)C(F)(F)F)nn2C)n1 [Compound 229]
- Wheat plant response rating (wheat [1]; [18]): 40
- Wheat plant response rating (wheat [1]; [19]): 70
- Corn plant response rating (0 to 100 scale) (corn [2]; [20]): 10
- Corn plant response rating (corn [2]; [21]): 50
- Crabgrass, Large plant response rating (0 to 100 scale) (crabgrass, large [3]; [20]): 100
- Crabgrass, Large plant response rating (crabgrass, large [3]; [21]): 100
- Velvetleaf plant response rating (velvetleaf [4]; [18]): 50
- Velvetleaf plant response rating (velvetleaf [4]; [19]): 80
- Plant response rating, Sedge, Umbrella (sedge, umbrella): 95
- Plant response rating, Ducksalad (ducksalad): 100
- Morningglory plant response rating (0 to 100 scale) (morningglory [5]; [20]): 50
- Foxtail, Giant plant response rating (0 to 100 scale) (foxtail, giant [6]; [20]): 90
- Foxtail, Giant plant response rating (foxtail, giant [6]; [21]): 100
- Foxtail, Giant plant response rating (foxtail, giant [7]; [18]): 60
- Foxtail, Giant plant response rating (foxtail, giant [7]; [19]): 90
- Barnyardgrass plant response rating (barnyardgrass [8]; [22]): 50
- Barnyardgrass plant response rating (barnyardgrass [8]; 500 g ai/ha, 0 to 100 scale (0 no effect, 100 complete control)): 90
- Pigweed plant response rating (0 to 100 scale) (pigweed [9]; [20]): 100
- Pigweed plant response rating (pigweed [10]; [18]): 90
- Pigweed plant response rating (pigweed [10]; [19]): 100
- Crabgrass, Large plant response rating (crabgrass, large [11]; [18]): 50
- Crabgrass, Large plant response rating (crabgrass, large [11]; [19]): 90
- Plant response rating, Barnyardgrass (barnyardgrass [12]): 60
- Wheat plant response rating (0 to 100 scale) (wheat [13]; [20]): 20
- Morningglory plant response rating (morningglory [14]; [18]): 70
- Morningglory plant response rating (morningglory [14]; [19]): 100
- Velvetleaf plant response rating (0 to 100 scale) (velvetleaf [15]; [20]): 40
- Corn plant response rating (corn [16]; [18]): 40
- Corn plant response rating (corn [16]; [19]): 70
- Barnyardgrass plant response rating (0 to 100 scale, 0 is no effect, 100 is complete control) (barnyardgrass [17]; [20]): 50
- Barnyardgrass plant response rating (barnyardgrass [17]; [21]): 100
- Plant response rating, Rice (rice): 40

SMILES: CCCc1cc(C(=O)Nc2ccc(F)cc2)nn1Oc1ccnc(C(F)(F)F)c1 [Compound 94]
- Wheat plant response rating (wheat [1]; [23]): 0
- Wheat plant response rating (wheat [1]; [24]): 0
- Corn plant response rating (corn [2]; [25]): 0
- Corn plant response rating (corn [2]; [21]): 0
- Crabgrass, Large plant response rating (crabgrass, large [3]; [25]): 0
- Crabgrass, Large plant response rating (crabgrass, large [3]; [21]): 0
- Velvetleaf plant response rating (velvetleaf [4]; [23]): 0
- Velvetleaf plant response rating (velvetleaf [4]; [24]): 0
- Plant response rating, Sedge, Umbrella (sedge, umbrella): 0
- Plant response rating, Ducksalad (ducksalad): 0
- Morningglory plant response rating (morningglory [5]; [25]): 0
- Morningglory plant response rating (morningglory [5]; [21]): 0
- Foxtail, Giant plant response rating (foxtail, giant [6]; [25]): 0
- Foxtail, Giant plant response rating (foxtail, giant [6]; [21]): 0
- Foxtail, Giant plant response rating (foxtail, giant [7]; [23]): 0
- Foxtail, Giant plant response rating (foxtail, giant [7]; [24]): 0
- Barnyardgrass plant response rating (barnyardgrass [8]; [22]): 0
- Barnyardgrass plant response rating (barnyardgrass [8]; 500 g ai/ha, visual rating after approx. 10 days, 0 to 100 scale (0 no effect, 100 complete control)): 0
- Pigweed plant response rating (pigweed [9]; [25]): 0
- Pigweed plant response rating (pigweed [9]; [21]): 0
- Pigweed plant response rating (pigweed [10]; [23]): 0
- Pigweed plant response rating (pigweed [10]; [24]): 0
- Crabgrass, Large plant response rating (crabgrass, large [11]; [23]): 0
- Crabgrass, Large plant response rating (crabgrass, large [11]; [24]): 0
- Plant response rating, Barnyardgrass (barnyardgrass [12]): 0
- Wheat plant response rating (wheat [13]; [25]): 0
- Wheat plant response rating (wheat [13]; [21]): 0
- Morningglory plant response rating (morningglory [14]; [23]): 0
- Morningglory plant response rating (morningglory [14]; [24]): 0
- Velvetleaf plant response rating (velvetleaf [15]; [25]): 0
- Velvetleaf plant response rating (velvetleaf [15]; [21]): 0
- Corn plant response rating (corn [16]; [23]): 0
- Corn plant response rating (corn [16]; [24]): 0
- Barnyardgrass plant response rating (barnyardgrass [17]; [25]): 0
- Barnyardgrass plant response rating (barnyardgrass [17]; [21]): 0
- Plant response rating, Rice (rice): 0
